Reference: PubChem BioAssay AID1963451 (Molecular Pharmacology Branch, DTP, NCI, 2024)
Where “and” joins values, the source holds several entries; their conditions need not be identical. Identical values can stand only once.

Test system: 521955-158-R6-J3-PDC complex spheroid growth, % test/control
Assay: Anticancer human tumor 521955-158-R6-J3-PDC patient-derived pancreatic carcinoma cell line growth inhibition [Asc]
Settings: for viability, T/C: stronger effect = lower value
How it was run: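 Spheroid model: tumor line + HUVEC + hMSC. Single agents and combinations; top conc. at/near clinical Cmax (10 microM if undetermined), half-log dilutions. DMSO stocks at 800-fold test concentration.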

[1] = curve of first compound, second compound 0.0316 µM
[2] = curve of first compound, second compound 0.1 µM
[3] = curve of first compound, second compound 0.316 µM
[4] = curve of first compound, second compound 1 µM
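Also: spheroids exposed to compounds for 7 days.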
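For viability, T/C in this document: 100% = DMSO vehicle control wells.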

In the case of `NC(=O)C(=Cn1cnc(-c2cc(C(F)(F)F)cc(C(F)(F)F)c2)n1)c1cncnc1` + Cc1c(S(C)(=O)=O)c(-c2cc(F)cc(N3CCN(c4ccc(NS(=O)(=O)c5ccc(NC(CCN6CCC(C(=O)OCCCP(=O)(O)O)CC6)CSc6ccccc6)c(S(=O)(=O)C(F)(F)F)c5)cc4)CC3)c2)c(-c2ccc(Cl)cc2)n1C(C)C, the IC50 [1] is reported as over 300 nM, the IC50 [2] is reported as over 300 nM and the IC50 [3] is reported as over 300 nM. It also gave an IC50 [4] of under 0.949 nM, an IC50 (curve of first compound, second compound 3.16 µM) of under 0.949 nM and an IC50 (curve of first compound, second compound 10 µM) of under 0.949 nM. For the same compound, the viability, T/C (second compound 0.0316 µM, first compound 0.000949 µM) was 95%, the viability, T/C (second compound 0.0316 µM, first compound 0.003 µM) was 97.1% and the viability, T/C (second compound 0.0316 µM, first compound 0.00949 µM) was 60.6%. The viability, T/C (second compound 0.0316 µM, first compound 0.03 µM) was 82.1%, the viability, T/C (second compound 0.0316 µM, first compound 0.0949 µM) was 103% and the viability, T/C (second compound 0.0316 µM, first compound 0.3 µM) was 108%. For the same compound, the viability, T/C (second compound 0.1 µM, first compound 0.000949 µM) was 84%, the viability, T/C (second compound 0.1 µM, first compound 0.003 µM) was 90.4% and the viability, T/C (second compound 0.1 µM, first compound 0.00949 µM) was 70.9%. It also gave a viability, T/C (second compound 0.1 µM, first compound 0.03 µM) of 62.1%, a viability, T/C (second compound 0.1 µM, first compound 0.0949 µM) of 89.3% and a viability, T/C (second compound 0.1 µM, first compound 0.3 µM) of 85.9%. The viability, T/C (second compound 0.316 µM, first compound 0.000949 µM) was 70.3%, the viability, T/C (second compound 0.316 µM, first compound 0.003 µM) was 49% and the viability, T/C (second compound 0.316 µM, first compound 0.00949 µM) was 47.2%. The viability, T/C (second compound 0.316 µM, first compound 0.03 µM) was 47.5%, the viability, T/C (second compound 0.316 µM, first compound 0.0949 µM) was 69.6% and the viability, T/C (second compound 0.316 µM, first compound 0.3 µM) was 43.5%. It also gave a viability, T/C (second compound 1 µM, first compound 0.000949 µM) of 47.1%, a viability, T/C (second compound 1 µM, first compound 0.003 µM) of 30.3% and a viability, T/C (second compound 1 µM, first compound 0.00949 µM) of 34.6%. For the same compound, the viability, T/C (second compound 1 µM, first compound 0.03 µM) was 33%, the viability, T/C (second compound 1 µM, first compound 0.0949 µM) was 43.8% and the viability, T/C (second compound 1 µM, first compound 0.3 µM) was 18.4%. For the same compound, the viability, T/C (second compound 3.16 µM, first compound 0.000949 µM) was 19.8%, the viability, T/C (second compound 3.16 µM, first compound 0.003 µM) was 21.9% and the viability, T/C (second compound 3.16 µM, first compound 0.00949 µM) was 22.6%. It also gave a viability, T/C (second compound 3.16 µM, first compound 0.03 µM) of 20.9%, a viability, T/C (second compound 3.16 µM, first compound 0.0949 µM) of 16.2% and a viability, T/C (second compound 3.16 µM, first compound 0.3 µM) of 5.69%. The viability, T/C (second compound 10 µM, first compound 0.000949 µM) was 12.2%, the viability, T/C (second compound 10 µM, first compound 0.003 µM) was 16.9% and the viability, T/C (second compound 10 µM, first compound 0.00949 µM) was 11.6%. For the same compound, the viability, T/C (second compound 10 µM, first compound 0.03 µM) was 10.2%, the viability, T/C (second compound 10 µM, first compound 0.0949 µM) was 9.2% and the viability, T/C (second compound 10 µM, first compound 0.3 µM) was 0.76%.
With `Cc1nc(N2CCC3(CC2)COC(C)C3N)c(CO)nc1Sc1ccnc(N)c1Cl` (stereo unspecified) the viability, T/C (compound 0.00949 µM) was 89.6% and 113% and 112%, the viability, T/C (compound 0.03 µM) was 90.4% and 106% and 101% and the viability, T/C (compound 0.0949 µM) was 83.9% and 93.1% and 97%. For the same compound, the viability, T/C (compound 0.3 µM) was 84.7% and 97.1% and 94.5%, the viability, T/C (compound 0.949 µM) was 72.8% and 94.4% and 71.6% and the viability, T/C (compound 3 µM) was 57.9% and 89.5% and 90.1%. It also gave an IC50 (curve of compound) of over 3000 nM.
In the case of `COc1c(OCCCN2CCOCC2)ccc2c3n(c(=NC(=O)c4cnc(N)nc4)nc12)CCN3` + CNC(C)C(=O)NC1CN(S(=O)(=O)c2cccc(S(=O)(=O)N3CCC4CCC(C(=O)NC(c5ccccc5)c5ccccc5)N4C(=O)C(NC(=O)C(C)NC)C3)c2)CCC2CCC(C(=O)NC(c3ccccc3)c3ccccc3)N2C1=O, the IC50 (curve of first compound, second compound 0.00316 µM) is reported as 113 nM, the IC50 (curve of first compound, second compound 0.01 µM) is reported as 67.5 nM and the IC50 [1] is reported as 69.3 nM. It also gave an IC50 [2] of 74.5 nM, an IC50 [3] of 75.2 nM and an IC50 [4] of 50.9 nM. For the same compound, the viability, T/C (second compound 0.00316 µM, first compound 0.00316 µM) was 81.4%, the viability, T/C (second compound 0.00316 µM, first compound 0.01 µM) was 62.2% and the viability, T/C (second compound 0.00316 µM, first compound 0.0316 µM) was 60.6%. For the same compound, the viability, T/C (second compound 0.00316 µM, first compound 0.1 µM) was 55.5%, the viability, T/C (second compound 0.00316 µM, first compound 0.316 µM) was 41.2% and the viability, T/C (second compound 0.00316 µM, first compound 1 µM) was 23.8%. It also gave a viability, T/C (second compound 0.01 µM, first compound 0.00316 µM) of 83.7%, a viability, T/C (second compound 0.01 µM, first compound 0.01 µM) of 67.5% and a viability, T/C (second compound 0.01 µM, first compound 0.0316 µM) of 54.4%. The viability, T/C (second compound 0.01 µM, first compound 0.1 µM) was 47%, the viability, T/C (second compound 0.01 µM, first compound 0.316 µM) was 40.9% and the viability, T/C (second compound 0.01 µM, first compound 1 µM) was 26.4%. For the same compound, the viability, T/C (second compound 0.0316 µM, first compound 0.00316 µM) was 80.9%, the viability, T/C (second compound 0.0316 µM, first compound 0.01 µM) was 63.9% and the viability, T/C (second compound 0.0316 µM, first compound 0.0316 µM) was 54.4%. It also gave a viability, T/C (second compound 0.0316 µM, first compound 0.1 µM) of 49.7%, a viability, T/C (second compound 0.0316 µM, first compound 0.316 µM) of 41.9% and a viability, T/C (second compound 0.0316 µM, first compound 1 µM) of 26.6%. It also gave a viability, T/C (second compound 0.1 µM, first compound 0.00316 µM) of 87.2%, a viability, T/C (second compound 0.1 µM, first compound 0.01 µM) of 61.9% and a viability, T/C (second compound 0.1 µM, first compound 0.0316 µM) of 59.5%. It also gave a viability, T/C (second compound 0.1 µM, first compound 0.1 µM) of 50%, a viability, T/C (second compound 0.1 µM, first compound 0.316 µM) of 38.4% and a viability, T/C (second compound 0.1 µM, first compound 1 µM) of 27.7%. The viability, T/C (second compound 0.316 µM, first compound 0.00316 µM) was 68.9%, the viability, T/C (second compound 0.316 µM, first compound 0.01 µM) was 66.6% and the viability, T/C (second compound 0.316 µM, first compound 0.0316 µM) was 52.5%. The viability, T/C (second compound 0.316 µM, first compound 0.1 µM) was 48.5%, the viability, T/C (second compound 0.316 µM, first compound 0.316 µM) was 40.5% and the viability, T/C (second compound 0.316 µM, first compound 1 µM) was 24.9%. For the same compound, the viability, T/C (second compound 1 µM, first compound 0.00316 µM) was 77.1%, the viability, T/C (second compound 1 µM, first compound 0.01 µM) was 56.4% and the viability, T/C (second compound 1 µM, first compound 0.0316 µM) was 53%. The viability, T/C (second compound 1 µM, first compound 0.1 µM) was 49.1%, the viability, T/C (second compound 1 µM, first compound 0.316 µM) was 37.2% and the viability, T/C (second compound 1 µM, first compound 1 µM) was 24.3%.
